Results as given in patent US20190367516A1 (Bayer Pharma Aktiengesellschaft, priority 2015, published 2019).
Read-outs that look alike come from different tables or passages of the source.

Key:
human M2 receptor [1] = biological target: T1, human M2 receptor (Homo sapiens, UniProt P08172); format: cell-based; details: α >1 = positive cooperativity
T1 sequence (P08172 1-466): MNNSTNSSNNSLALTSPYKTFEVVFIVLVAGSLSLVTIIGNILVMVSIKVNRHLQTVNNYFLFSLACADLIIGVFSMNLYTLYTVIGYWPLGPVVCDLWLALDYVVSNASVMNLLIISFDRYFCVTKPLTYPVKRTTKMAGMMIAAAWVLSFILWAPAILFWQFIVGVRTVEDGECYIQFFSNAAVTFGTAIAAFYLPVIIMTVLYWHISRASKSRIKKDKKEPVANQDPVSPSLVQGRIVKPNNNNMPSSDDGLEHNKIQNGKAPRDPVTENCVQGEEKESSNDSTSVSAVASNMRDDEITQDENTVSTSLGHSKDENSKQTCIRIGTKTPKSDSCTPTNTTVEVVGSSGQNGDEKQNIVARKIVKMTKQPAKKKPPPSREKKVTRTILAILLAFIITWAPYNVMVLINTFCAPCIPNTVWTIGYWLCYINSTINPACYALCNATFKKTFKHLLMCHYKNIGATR

anaesthetized rats = assay: Effects on the heart rate in anaesthetized rats (B-9); format: in vivo, rat; details: i.v. infusion via jugular vein over 5 min, dose not given, in some cases means of several determinations
Procedure: B-9. Effects of the Test Substances on the Heart Rate in Anaesthetized Rats
Male rats of the strain (WI) WU Br from the breeder Charles River are anaesthetized initially with a 4-5% isoflurane inhalation for approx. 3 min. Subsequently, anaesthesia is maintained using a 1.5% isoflurane inhalation. For this purpose, the anaesthetized animals are fixed on a heated operating plate. By means of visual inspection and between toe reflex, the depth of anaesthesia is checked.
For the application of the test substance, an i.v. route into the jugular vein is used. A caudal to cranial skin incision is then made longitudinally and both the cervical musculature and the salivary glands are severed. The right common carotid artery is exposed and blood supply is arrested both proximally and distally. Using microinstrumentation, a TIP catheter (1.2 F) is introduced into the vessel in order to measure the arterial pressure and the heart rate.
Initially, both parameters are monitored for 10 min in the basal state without substance addition. The substances to be investigated are dissolved in suitable solvent mixtures and subsequently administered at various dosages to a group of animals in each case via the jugular vein by an infusion pump over 5 min. A solvent-treated group is used as control under the same experimental conditions. The arterial blood pressure and heart rate with substance addition is determined for 20 min. The data are registered with the PowerLab system (AD instruments) and evaluated using the LabChart program (AD instruments).
The values determined in this manner for the percentage decrease in heart rate for individual working examples are given in Table 4 below (in some cases as means of a plurality of independent individual determinations): […]

human M2 receptor [2] = biological target: T1, human M2 receptor
[3] = shift in the acetylcholine dose-response curve (Allosteric EC50 shift, GraphPad PRISM)
[4] = Receptor activity EC50, M2-GIRK1/4 activation test, acetylcholine at EC20, allosteric potency, in some cases mean values from two or more determinations
[5] = shift of acetylcholine dose-response curve (Allosteric EC50 shift)
[6] = Receptor activity EC50, allosteric potency at EC20 acetylcholine, M2-GIRK1/4 reporter cells, in some cases mean of two or more determinations
[7] = read-out: Efficiency, boosting of the acetylcholine effect at EC20 acetylcholine concentration, M2-GIRK1/4 reporter cells

| Structure (SMILES) | Cooperativity (alpha factor) (human M2 receptor [1]; [3]) | Reduction in heart rate (%) (anaesthetized rats) | EC50 (human M2 receptor [2]; [4]) | Emax (human M2 receptor [2]; read-out: Efficiency) | Cooperativity (alpha factor) (human M2 receptor [1]; [5]) | EC50 (human M2 receptor [2]; [6]) | Emax (human M2 receptor [2]; [7]) | Efficiency (human M2 receptor [2]; boosting of the acetylcholine effect at EC20 acetylcholine concentration, M2-GIRK1/4 reporter cells) |
| --- | --- | --- | --- | --- | --- | --- | --- | --- |
| CC[C@@H](NC(=O)c1cn(-c2c(F)cccc2F)c2nc(N3C[C@@H](O)CC3=O)ccc2c1=O)C(F)(F)F [Example 275, 1-(2,6-Difluorophenyl)-7-[(4S)-4-hydroxy-2-oxopyrrolidin-1-yl]-4-oxo-N-[(2R)-1,1,1-trifluorobutan-2-yl]-1,4-dihydro-1,8-naphthyridine-3-carboxamide] | 38 | 9% | 0.018 µM | 92.8% | – | – | – | – |
| CCC(NC(=O)c1cn(-c2c(F)cc(F)cc2F)c2nc(N3C[C@@H](O)[C@H](O)C3)ccc2c1=O)C(F)(F)C(F)(F)F (single isomer, unassigned) [Example 523] | – | 15% | – | 100% | 41 | – | – | – |
| O=C(N[C@H](C1CC1)C(F)(F)F)c1cn(-c2c(F)cc(F)cc2F)c2nc(N3CCNC3=O)ccc2c1=O [Example 342, N-[(1R)-1-Cyclopropyl-2,2,2-trifluoroethyl]-4-oxo-7-(2-oxoimidazolidin-1-yl)-1-(2,4,6-trifluorophenyl)-1,4-dihydro-1,8-naphthyridine-3-carboxamide] | 13 | 10% | 0.011 µM | – | – | – | – | – |
| O=C(N[C@@H](C1CC1)C(F)(F)F)c1cn(-c2c(F)cc(F)cc2F)c2nc(N3C[C@@H](O)CC3=O)ccc2c1=O [Example 404, N-[(1 S)-1-Cyclopropyl-2,2,2-trifluoroethyl]-7-[(4S)-4-hydroxy-2-oxopyrrolidin-1-yl]-4-oxo-1-(2,4,6-trifluorophenyl)-1,4-dihydro-1,8-naphthyridine-3-carboxamide] | – | 9% | – | – | 35 | 0.007 µM | 98.3% | – |
| O=C(NC(c1ccccc1Cl)C(F)(F)F)c1cn(-c2ccc(F)cc2F)c2nc(N3C[C@@H](O)CC3=O)ccc2c1=O (single isomer, unassigned) [Example 213] | 55 | 14% | 0.019 µM | – | – | – | – | – |
| CCC(NC(=O)c1cn(-c2c(F)cc(F)cc2F)c2nc(N3C[C@@H](O)CC3=O)ccc2c1=O)C(F)(F)C(F)(F)F (single isomer, unassigned) [Example 520] | – | 15% | – | – | 36 | 0.002 µM | 100% | – |
| O=C(NC(c1ccccc1Cl)C(F)(F)F)c1cn(-c2ccc(F)cc2F)c2nc(N3C[C@@H](O)CC3=O)ccc2c1=O (single isomer, unassigned) [Example 212] | 54 | 11% | 0.041 µM | – | – | – | – | – |
| CC[C@H](NC(=O)c1cn(-c2c(F)cc(F)cc2Cl)c2nc(N3C[C@@H](O)CC3=O)ccc2c1=O)C(F)(F)F (single isomer, unassigned) [Example 400] | – | 11% | – | – | 32 | 0.005 µM | – | 100.0% |
| CC(NC(=O)c1cn(-c2c(F)cc(F)cc2F)c2nc(N3C[C@@H](O)[C@H](O)C3)ccc2c1=O)C(F)(F)C(F)(F)F (single isomer, unassigned) [Example 550] | – | 13% | – | 100% | 34 | – | – | – |
| O=C(N[C@H](C1CC1)C(F)(F)F)c1cn(-c2ccc(F)cc2F)c2nc(N3C[C@@H](O)CC3=O)ccc2c1=O [Example 271, N-[(1R)-1-Cyclopropyl-2,2,2-trifluoroethyl]-1-(2,4-difluorophenyl)-7-[(4S)-4-hydroxy-2-oxopyrrolidin-1-yl]-4-oxo-1,4-dihydro-1,8-naphthyridine-3-carboxamide] | 43 | 8% | 0.04 µM | – | – | – | – | – |
| O=C(N[C@H](C1CC1)C(F)(F)F)c1cn(-c2c(F)cc(F)cc2Cl)c2nc(N3C[C@@H](O)CC3=O)ccc2c1=O [Example 414, 1-(2-Chloro-4,6-difluorophenyl)-N-[(1R)-1-cyclopropyl-2,2,2-trifluoroethyl]-7-[(4S)-4-hydroxy-2-oxopyrrolidin-1-yl]-4-oxo-1,4-dihydro-1,8-naphthyridine-3-carboxamide] | – | 16% | – | – | 40 | 0.009 µM | 100% | – |
| CC[C@@H](NC(=O)c1cn(-c2ccc(F)cc2F)c2nc(N3CC[C@H](F)C3)ccc2c1=O)C(F)(F)F [Example 189, 1-(2,4-Difluorophenyl)-7-[(3S)-3-fluoropyrrolidin-1-yl]-4-oxo-N-[(2R)-1,1,1-trifluorobutan-2-yl]-1,4-dihydro-1,8-naphthyridine-3-carboxamide] | 24 | 7% | 0.023 µM | – | – | – | – | – |
| CC[C@@H](NC(=O)c1cn(-c2ccc(F)cc2F)c2nc(N3CC4C(C3)C4(F)F)ccc2c1=O)C(F)(F)F (stereo partly drawn) [Example 28, 7-(6,6-Difluoro-3-azabicyclo[3.1.0]hex-3-yl)-1-(2,4-difluorophenyl)-4-oxo-N-[(2R)-1,1,1-trifluorobutan-2-yl]-1,4-dihydro-1,8-naphthyridine-3-carboxamide] | 25 | 9% | 0.023 µM | – | – | – | – | – |
| O=C(N[C@@H](C1CC1)C(F)(F)F)c1cn(-c2c(F)cccc2F)c2nc(N3C[C@@H](O)CC3=O)ccc2c1=O (single isomer, unassigned) [Example 297] | 47 | 10% | 0.037 µM | – | – | – | – | – |
| O=C(N[C@H](C1CC1)C(F)(F)F)c1cn(-c2c(F)cc(F)cc2F)c2nc(N3C[C@@H](O)CC3=O)ccc2c1=O [Example 386, N-[(1R)-1-Cyclopropyl-2,2,2-trifluoroethyl]-7-[(4S)-4-hydroxy-2-oxopyrrolidin-1-yl]-4-oxo-1-(2,4,6-trifluorophenyl)-1,4-dihydro-1,8-naphthyridine-3-carboxamide] | 39 | 13% | 0.009 µM | – | – | – | – | – |
| CC[C@@H](NC(=O)c1cn(-c2c(F)cc(F)cc2Cl)c2nc(N3C[C@@H](O)CC3=O)ccc2c1=O)C(F)(F)F [Example 407, 1-(2-Chloro-4,6-difluorophenyl)-7-[(4S)-4-hydroxy-2-oxopyrrolidin-1-yl]-4-oxo-N-[(2R)-1,1,1-trifluorobutan-2-yl]-1,4-dihydro-1,8-naphthyridine-3-carboxamide] | – | 13% | – | – | 32 | 0.007 µM | 98.5% | – |
